Experimental findings from patent US5162316A, “Pyrimido[4,5-d]pyrimidine derivatives for use as bronchodilators” (Smith Kline & French Laboratories Limited, priority 1988, dated 1992) are described below.

Series [1] has as its system U46619-induced bronchoconstriction. Kind of series: Bronchodilatation in vivo: inhibition of U46619-induced bronchoconstriction in anaesthetised guinea-pigs (Konzett-Rossler). Particulars: for ED50: Cavia porcellus, iv, i.v. bolus, anaesthetised guinea-pig, range for the group of listed Examples, read-out: BD50 (dose of compound required to reduce the U46619-induced bronchoconstriction by 50%). Also on record: species or system guinea-pig (Dunkin Hartley, male). On the procedure: Male guinea-pigs of the Dunkin Hartley strain (500-600g) were anaesthetised with Sagatal (pentobarbital sodium) (60 mg/kg). Airway resistance was measured using a modification of the classical Konzett-Rossler technique (J. Pharm. Methods, 13, 309- 315, 1985). […] The compound under test was administered by i.v. bolus injection, and the subsequent peak inhibition of bronchoconstriction recorded.
The dose of compound required to reduce the U46619-induced bronchoconstriction by 50% is given as the BD50. The compounds of Examples 1, 7, 8, 12, 13, 14, 18, 20, 21, 22 and 24 had BD50 values in the range 0.48-3.85 μmol/kg.

Series [2] has as its system hindquarter blood flow. The series is described as follows: Vasodilatation in vivo: hindquarter blood flow in anaesthetised rats. Particulars: bolus i.v., 50 μmol/kg, rat. Also on record: species or system rat (Wistar, male). On the procedure: Male Wistar rats (300 g) were anaesthetised with a sodium 5-ethyl-5-(1methylpropyl)-2-thiobarbiturate/sodium pentobarbitone mixture i.p. (62.5 and 22.5 mg/kg respectively). The trachea was cannulated and the rats breathed spontaneously air enriched with O2 (5 ml/min). Blood pressure was recorded from a carotid artery and a jugular vein was cannulated for the administration of compounds. The temperature of the animal was maintained at 37° C. by the use of an electric blanket. […] The perfusion circuit was primed with 5% bovine serum albumin dissolved in 0.9% sodium chloride solution, pH adjusted to 7.4. Initially the pump rate was set between 10 and 15 ml/min to match the hind quarter perfusion pressure to that of the systemic circulation. Once set, the pressure remained unaltered for the rest of the experiment. A change in the speed of the pump (equivalent to hindquarter blood flow) was used to assess the changes in hindquarter vascular resistance.

Series [3] has as its system ovalbumen-induced bronchoconstrictor response. The series is described as follows: Anti-allergic activity: ovalbumen-induced bronchoconstriction in sensitised guinea-pigs. The note with it: ovalbumen 1 mg/kg i.v., n=6. Type of series: in vivo, guinea-pig (Duncan Hartley, male). On the procedure: Male Duncan Hartley guinea-pigs (250-300 g) were sensitised to ovalbumen by i.p. injection of 2 ml of 50mg.ml^-1 i.p. and 0.2 ml s.c. Three weeks later they were anaesthetised with 60mg.kg^-1 sodium pentabarbitone. The trachea was cannulated and the animal respired at a rate of 40 breaths per minute and at an initial tracheal inflation pressure of 16 mmHg. Tracheal inflation pressure was measured by a transducer connected to a side arm of the respiration circuit. The carotid artery was cannulated for the measurement of blood pressure and the signal was used to trigger an instantaneous rate meter. A jugular vein was cannulated for the administration of drug and allergen. After surgery the animals were allowed to stabilise and the drug was administered i.v. as a bolus. Following this, ovalbumen 1 mg.kg^-1 was injected i.v. as the antigen challenge either 2, 15 or 30 minutes following drug treatment and the peak bronchoconstrictor response recorded. For the control group ovalbumen only was given. One ovalbumen challenge per guinea-pig was used and n=6 for each time point. The percentage increase in tracheal inflation pressure was calculated. The following results indicating an anti-allergic activity were obtained.

Series [4] deals with T1, calmodulin insensitive cyclic GMP phosphodiesterase (Sus scrofa, UniProt A0A287B475).
T1 construct: kept on ice until the pulmonary arteries or aortas could be dissected and excess fat removed; from tissue; host or cells: pig pulmonary arteries or aortas; soluble fraction purified over DEAE-Sepharose, calmodulin-agarose and cibacron blue-agarose
The series is described as follows: Kinetic properties of the isolated PDE activity. The note with it: at 1 μM substrate. The format is biochemical, pig. The protocol:
Eight pig hearts/lungs were collected from the abattoir and kept on ice until the pulmonary arteries or aortas could be dissected and excess fat removed. 120 g of tissue was dissected. […] On the day of homogenisation, tissue was cooled with liquid nitrogen and broken into small pieces by striking with a hammer. […] Phenylmethanesulphonylfluoride (PMSF) was added to a final concentration of 50 μM just prior to homogenisation. The homogenate was then centrifuged for 20 minutes at 30,000 g. Supernatant was filtered firstly through glass wool and then a 0.45 μm filter. […] The column was washed with 150 mls of homogenisation buffer and PDE activities eluted with 150 ml of homogenisation buffer containing 100 mM sodium acetate.
Fractions 2 and 3 were pooled and BIS-TRIS, MgCl2, CaCl2 added to final concentrations of 50 mM, 7 mM and 5 mM respectively. PMSF, leupeptin, antipain and pepstatin A were also added at the concentrations described above for these components. The pH of this pooled sample was corrected to 6.9.
The first column in the tandem was a 5 ml calmodulin-agarose column (Sigma) and the second a 1.5 ml cibacron blue 3GA-agarose column (Sigma). Both columns were pre-equilibrated with 50 mM BIS-TRIS, 5 mM MgCl2, 5 mM CaCl2, 5 mM benzamidine, 2 mM dithiothreitol pH 6.9. Following application of the sample the columns were washed with 20 ml of equilibration buffer. […]

In series [5] the test system is [H][C@@]12COP(=O)(O)O[C@@]1([H])[C@@H](O)[C@H](n1cnc3c(=O)[nH]c(N)nc31)O2. The series is described as follows: purified protein, by the assay type. The note with it: other: substrate of the isolated PDE activity.

`CCCOc1ccccc1-c1nc2nc(SC)ncc2c(=O)[nH]1` [Example 1, 7-Methylthio-4-oxo-2-(2-propoxyphenyl)-3,4-dihydropyrimido-[4.5-d]pyrimidin]: the ED50 in series [1] is 0.48 to 3.85 µmol/kg. The “increase in hindquarter blood flow” value in series [2] was found to be 43.7%.

As to `CCCOc1ccccc1-c1nc2nc(N)ncc2c(=O)[nH]1` [Example 7, 7 Amino 4-oxo-2-(2-propoxyphenyl)-3,4-dihydropyrimido[4.5-d]pyrimidine], the ED50 in series [1] lay in the range of 0.48 to 3.85 µmol/kg.

Take `CCCOc1ccccc1-c1nc2nc(NC)ncc2c(=O)[nH]1` [Example 8, 7-Methylamino-4-oxo-2-(2-propoxyphenyl)-3,4-dihydropyrimido[4.5-d]pyrimidine]: in series [1], the ED50 fell in the range of 0.48 to 3.85 µmol/kg. Also, the “% Inhibition of Control Bronchoconstrictor Response 30 min after drug administration” value (“% Inhibition” for short) in series [3] (dose 6.0 μmol/kg i.v.) came to 23%.

Consider `CCCOc1ccccc1-c1nc2nc(NCC)ncc2c(=O)[nH]1` [Example 12, 7-Ethylamino-4-oxo-2-(2-propoxyphenyl)-3,4-dihydropyrimido[4,5-d]pyrimidine], for which the ED50 in series [1] was in the range of 0.48 to 3.85 µmol/kg. The “% Inhibition” value in series [3] (dose 18.7 μmol/kg i.v.) was 24%.

In the case of `CCCOc1ccccc1-c1nc2nc(NCCO)ncc2c(=O)[nH]1` [Example 13], in series [1], the ED50 was 0.48 to 3.85 µmol/kg. Besides, the “% Inhibition” value in series [3] (dose 4.8 μmol/kg i.v.) was determined as 21%.

On to `CCCOc1ccccc1-c1nc2nc(CC)ncc2c(=O)[nH]1` [Example 14, 7-Ethyl-4-oxo-2-(2-propoxyphenyl)-3,4-dihydropyrimido[4,5-d]pyrimidine], for which the ED50 in series [1] lay in the range of 0.48 to 3.85 µmol/kg.

As to `CCCOc1ccccc1-c1nc2nc(NC3CC3)ncc2c(=O)[nH]1` [Example 18, 7-Cyclopropylamino-4-oxo-2-(2-propoxyphenyl)-3,4-dihydropyrimido[4,5-d]pyrimidine], the ED50 in series [1] was 0.48 to 3.85 µmol/kg. Also, the “% Inhibition” value in series [3] (dose 22.6 μmol/kg i.v.) came out at 44%.

For `CCCNc1ncc2c(=O)[nH]c(-c3ccccc3OCCC)nc2n1` [Example 20, 7-Propylamino-4-oxo-2-(2-propoxyphenyl)-3,4-dihydropyrimido[4,5-d]pyrimidine], in series [1], the ED50 was 0.48 to 3.85 µmol/kg.

For the molecule `CCCOc1ccccc1-c1nc2nc(NCCCO)ncc2c(=O)[nH]1` [Example 21, 7-(3-Hydroxypropylamino)-4-oxo-2-(2-propoxyphenyl)-3,4-dihydropyrimido[4.5 d]pyrimidine], in series [1], the ED50 is 0.48 to 3.85 µmol/kg.

For `CCCOc1ccccc1-c1nc2nc(NCCOC)ncc2c(=O)[nH]1` [Example 22], the ED50 in series [1] was in the range of 0.48 to 3.85 µmol/kg.

For the molecule `CCCOc1ccccc1-c1nc2nc(NCC(C)O)ncc2c(=O)[nH]1` (centres unmarked) [Example 24, 7-(2-Hydroxypropylamino)-4-oxo-2-(2-propoxyphenyl)-3,4-dihydropyrimido[4,5-d]pyrimidine], in series [1], the ED50 fell in the range of 0.48 to 3.85 µmol/kg. For the same molecule, the “% Inhibition” value in series [3] (dose 6.5 μmol/kg i.v.) is 24%.

On to `CCCCCC(O)C=CC1C2CC(CO2)C1CC=CCCCC(=O)O` (centres unmarked) [Example U46619, 9,11-methaneoepoxy-PGH2, reference compound], for which the “increase from basal airway resistance (steady state of bronchoconstriction)” value in series [1] (U46619 infused i.v. at 2.5 nmol/min) is reported as “approximately 120%”.

Consider `Nc1nc2c(ncn2[C@@H]2O[C@@H]3COP(=O)(O)O[C@H]3[C@H]2O)c(=O)[nH]1` [cGMP], for which the “Ratio of cGMP/cAMP hydrolysis” value in series [4] was found to be 30.

Take “calmodulin insensitive cyclic GMP phosphodiesterase (Sus scrofa)”: the Michaelis constant (Km) in series [5] stood at 1.3 µM.

What is called Km is the concentration of substrate that gives half-maximal velocity.
